Experiment [1] relates to HCV RNA replication in Huh-7 cells with a stable subgenomic HCV replicon (MP-1 cells). Kind of experiment: microbe, parasite or virus in culture. The experiment is classed as cell-based. The following applies: Hepatitis C virus, assay of Example 159A, read-out: EC50 (nM) Ex 159A (converted).
For experiment [2], the target named is T1, hepatitis C virus RNA dependent polymerase (NS5B) (Hepatitis C virus genotype 1b, UniProt P26663).
T1 construct: the RNA dependent RNA polymerase of HCV, specifically, the enzyme NS5B encoded by HCV
T1 sequence (P26663 2420-3010): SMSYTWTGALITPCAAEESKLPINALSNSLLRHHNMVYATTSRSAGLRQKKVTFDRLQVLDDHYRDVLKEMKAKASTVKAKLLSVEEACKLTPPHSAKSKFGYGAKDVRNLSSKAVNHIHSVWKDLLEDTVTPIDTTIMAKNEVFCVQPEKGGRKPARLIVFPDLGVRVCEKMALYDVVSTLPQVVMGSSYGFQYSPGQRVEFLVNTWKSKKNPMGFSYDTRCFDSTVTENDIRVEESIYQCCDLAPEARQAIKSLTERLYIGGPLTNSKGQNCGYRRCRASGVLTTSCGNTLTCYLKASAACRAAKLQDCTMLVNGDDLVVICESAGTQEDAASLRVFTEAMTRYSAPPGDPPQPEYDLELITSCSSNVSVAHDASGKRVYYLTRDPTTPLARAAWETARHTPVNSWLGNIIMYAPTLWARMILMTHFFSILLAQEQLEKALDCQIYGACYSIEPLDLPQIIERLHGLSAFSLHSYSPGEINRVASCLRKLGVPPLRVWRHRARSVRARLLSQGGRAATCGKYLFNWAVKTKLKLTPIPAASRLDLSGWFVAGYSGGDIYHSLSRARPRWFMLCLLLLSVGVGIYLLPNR
As to the kind of experiment: Inhibition of NS5B RNA dependent RNA polymerase activity. The experiment is classed as biochemical. The following applies: assay of Example 158A; read-out: IC50 (nM) Ex 158A (converted). The procedure:
Inhibition of NS5B RNA Dependent RNA Polymerase Activity
Representative compounds of the invention are tested for inhibitory activity against the hepatitis C virus RNA dependent polymerase (NS5B), using the assay described in WO2009/018657, herein incorporated by reference.

The structures appear in SMILES notation. A value given as a limit tells only on which side of the number the result lay.

Results on 20 molecules are retold here after US20110230465A1, “VIRAL POLYMERASE INHIBITORS” (BOEHRINGER INGLEHEIM INTERNATIONAL GMBH, priority 2009, published 2011).

Take `Cc1ccc(Cn2cnc(=O)c3cc(Oc4ccc(C(N)=O)cc4)ccc32)c(F)c1` [Compound 1030]: in experiment [1], the EC50 is 8500 nM. The half-maximal inhibitory concentration (IC50) in experiment [2] is 610 nM.

Turning to `O=c1ncn(Cc2c(F)cc(F)cc2F)c2ccc(O[C@H]3CC[C@H](CO)CC3)cc12` [Compound 2061], the 50% effective concentration (EC50) in experiment [1] was 2500 nM. Further, the concentration for half-maximal inhibition (IC50) in experiment [2] is 530 nM.

Consider `Cc1ccc(Cn2cnc(=O)c3cc(Oc4ncccc4C(F)(F)F)ccc32)c(-c2ccsc2)c1` [Compound 3052], for which, in experiment [1], the EC50 is 210 nM. Also, in experiment [2], the IC50 is 110 nM.

`Cc1ccc(-c2ncccc2-n2cnc(=O)c3cc(Oc4ncccc4C(F)(F)F)ccc32)cc1` [Compound 3090]: the half-maximal effective concentration (EC50) in experiment [1] was 82 nM. Further, in experiment [2], the IC50 is 130 nM.

As for `COCCOc1ccnc(Oc2ccc3c(c2)c(=O)ncn3Cc2c(F)cc(F)cc2F)c1C(F)(F)F` [Compound 4003], the concentration for a half-maximal effect (EC50) in experiment [1] was 61 nM. The IC50 in experiment [2] was 67 nM.

As for `O=c1ncn(Cc2c(F)cc(F)cc2F)c2ccc(Oc3ncc(Cc4nn[nH]n4)cc3C(F)(F)F)cc12` [Compound 4020], in experiment [1], the EC50 is 5400 nM. Further, the IC50 in experiment [2] was 78 nM.

In the case of `O=c1ncn(Cc2ccc(F)cc2F)c2ccc(Oc3ncc(Cn4nccn4)cc3C(F)(F)F)cc12` [Compound 5001], the EC50 in experiment [1] was 470 nM. In addition, the IC50 in experiment [2] was 240 nM.

As to `NC(=O)Cc1cccc(Oc2ccc3c(c2)c(=O)ncn3Cc2c(F)cc(F)cc2F)c1C(F)(F)F` [Compound 6036], the EC50 in experiment [1] is 60 nM. Besides, the IC50 in experiment [2] is 18 nM.

Consider `Cc1ncccc1NC(=O)c1ccc(Oc2ccc3c(c2)c(=O)ncn3Cc2c(F)cc(F)cc2F)c(C(F)(F)F)c1` [Compound 6047], for which the EC50 in experiment [1] was 10 nM. Moreover, the IC50 in experiment [2] was 15 nM.

As to `CN(C)C(=O)c1cccc(Oc2ccc3c(c2)c(=O)ncn3Cc2c(F)cc(F)cc2F)c1` [Compound 7034], the EC50 in experiment [1] was 5700 nM. Also, the IC50 in experiment [2] was 4900 nM.

On to `CN(C)c1cc2c(cc1Oc1ncccc1C(F)(F)F)c(=O)ncn2Cc1ccc(F)cc1F` [Compound 8009], for which the EC50 in experiment [1] is above 10000 nM.

With `CCc1nc(=O)c2cc(Oc3ncccc3C(F)(F)F)ccc2n1-c1cccnc1-c1ccc(C)cc1F` [Compound 8011], the EC50 in experiment [1] was 4800 nM. For the same molecule, the IC50 in experiment [2] is 34500 nM.

Regarding `CCNc1ccc(-c2cccc(Oc3ccc4c(c3)c(=O)ncn4[C@H](C)c3c(F)cc(F)cc3F)c2C(F)(F)F)cn1` [Compound 9001], the half-inhibitory concentration (IC50) in experiment [2] is 23 nM.

For the molecule `C[C@H](c1c(F)cc(F)cc1F)n1cnc(=O)c2cc(Oc3cccc(-c4ccc(N)nc4)c3C(F)(F)F)ccc21` [Compound 9003], the EC50 in experiment [1] was 4 nM. In addition, the half-maximal inhibitory concentration (IC50) in experiment [2] was 18 nM.

In the case of `C[C@H](c1c(F)cc(F)cc1F)n1cnc(=O)c2cc(Oc3cccc(-c4ncc(N)cn4)c3C(F)(F)F)ccc21` [Compound 9011], the half-maximal inhibitory concentration (IC50) in experiment [2] was 7.8 nM.

Regarding `O=c1ncn(Cc2c(F)cc(F)cc2F)c2ccc(Oc3cccc(-c4cccc5[nH]ccc45)c3C(F)(F)F)cc12` [Compound 9016], in experiment [1], the concentration giving a half-maximal response (EC50) is 2.2 nM. Also, the IC50 in experiment [2] is 25 nM.

Regarding `Cc1c(-c2cccc(Oc3ccc4c(c3)c(=O)ncn4Cc3c(F)cc(F)cc3F)c2C(F)(F)F)cnn1-c1ccccc1` [Compound 9019], the EC50 in experiment [1] was 183 nM. In experiment [2], the half-inhibitory concentration (IC50) was 51 nM.

With `O=c1ncn(Cc2c(F)cc(F)cc2F)c2ccc(Oc3cccc(-c4ccc5nonc5c4)c3C(F)(F)F)cc12` [Compound 9020], the EC50 in experiment [1] is 199 nM. In experiment [2], the concentration for half-maximal inhibition (IC50) is 107 nM.

For `Cc1nc(-c2cccc(Oc3ccc4c(c3)c(=O)ncn4[C@H](C)c3c(F)cc(F)cc3F)c2C(F)(F)F)ncc1N` [Compound 9025], the IC50 in experiment [2] is 14 nM.

Regarding `N#Cc1cc(-c2cccc(Oc3ccc4c(c3)c(=O)ncn4Cc3c(F)cc(F)cc3F)c2C(F)(F)F)cnc1N` [Compound 9026], in experiment [2], the half-inhibitory concentration (IC50) was 28 nM.
